Data: US9056835B2, “LPA2 receptor-specific benzoic acid derivatives” (University of Tennessee Research Foundation, priority 2012, dated 2015)

What was measured:
C57BL/6 mice = experiment: Radiation-induced mortality, 15.68 Gy PBI-BM5; type: in vivo, mouse; conditions: 15.68 Gy PBI-BM5, single 1 mg/kg s.c. 24 h after irradiation
Experimental: 10-week old female C57BL/6 mice were exposed to a 15.68 Gy (˜LD60/8-10) dose of γ-irradiation from a ^137Cs Source. Twenty four hours after irradiation mice were treated with a single 200 μL subcutaneous injection of 1 mg/kg of the test compounds 5b, 7a, and 7b dissolved in 0.8% DMSO, 1% ethanol, 2% propanediol in PBS buffer. The animals were observed daily and provided with food and water ad libitum. Form day four onward the mice also were provided with a gel food diet. The study endpoint was mortality by day 20.

LPA2 [1] = molecular target: T1, LPA2 (Homo sapiens, UniProt Q9HBW0); experiment: LPA receptor-mediated Ca2+ mobilization assay, LPA2 (RH7777 cells stably expressing LPA2); type: cell-based; design: expressed in transfected cells; conditions: Ca2+ transients, RH7777 cells stably expressing LPA2; for EC50: read-out: EC50 (μM) (RH7777)
T1 sequence (Q9HBW0 whole entry): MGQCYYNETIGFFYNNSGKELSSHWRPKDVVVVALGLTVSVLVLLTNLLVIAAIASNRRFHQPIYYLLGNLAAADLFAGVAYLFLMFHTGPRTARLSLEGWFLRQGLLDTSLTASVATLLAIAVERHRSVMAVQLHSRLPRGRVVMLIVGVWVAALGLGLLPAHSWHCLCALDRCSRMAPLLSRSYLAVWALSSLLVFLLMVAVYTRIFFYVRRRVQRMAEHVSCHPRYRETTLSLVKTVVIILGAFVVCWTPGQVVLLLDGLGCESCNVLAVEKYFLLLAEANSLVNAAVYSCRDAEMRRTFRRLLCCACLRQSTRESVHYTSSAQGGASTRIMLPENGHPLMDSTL
Experimental: Similarity searches were performed separately using each fingerprint to quantitate similarity. Hits meeting the 80% similarity threshold from each search were ranked based on the Tanimoto coefficient measure of similarity to a target molecule NSC12404, and the top 75 unique hits from each fingerprint search were selected for further analysis. […] This selected a diverse subset of 27 compounds for biological evaluation by choosing the middle compounds in each cluster. These 27 compounds were tested in Ca^2+ mobilization assays at a concentration of 10 μM using stable cell lines individually expressing LPA2 and also in vector-transfected control cells. Hits activating LPA2 were further tested using cells expressing the other established and putative LPA GPCRs. […] They arbitrarily selected GRI977143 for further characterization in cell-based assays.
The newly-synthesized compounds were tested for their ability to induce Ca^2+ transients in RH7777 cells stably expressing the LPA2 receptor.
The cells were loaded with Fura-2-acetoxymethyl esther (Fura-2/AM) in Krebs buffer containing 0.01% pluronic acid for 30 min and rinsed with Krebs buffer before measuring Ca^2+ mobilization. The ratio of peak emissions at 510 nm after 2 min of ligand addition was determined for excitation wavelengths of 340 nm/380 nm. All samples were run in quadruplicate. […] The half maximally effective concentration (EC50), and inhibitory constant (Ki) values were calculated by fitting a sigmoid function to dose-response data points using KaleidaGraph software (version 4.1, Synergy Software; […]).
Mouse embryonic fibroblast (MEF) cells were isolated from E13.5 LPA1&2 double knockout (DKO) embryos. MEFs were transduced with empty vector or LPA2-containing lentiviruses and selected with 1.5 μg/ml puromycin. Cells were maintained in Dulbecco's modified Eagle medium (DMEM) supplemented with 10% (V/V) fetal bovine serum (FBS), 2 mM L-glutamine, 100 U/mL penicillin, and 100 μg/mL streptomycin. Serum-free medium contained 0.1% (W/V) BSA in DMEM. The rat intestinal epithelial cell line 6 (IEC-6) was obtained from the American Type Culture Collection (Rockville, Md.) at passage 13; passages 16-21 were used in all experiments. IEC-6 cells were maintained in a humidified 37° C. incubator in an atmosphere of 90% air and 10% CO2. Growth medium consisted of DMEM supplemented with 5% heat inactivated FBS, 10 μg/mL insulin, and 50 μg/mL gentamycin. The composition of the serum-starvation medium was the same as that of the full growth medium except that it contained no FBS. The McArdle rat hepatoma cell line (RH7777) stably expressing LPA2 receptors was a gift from Dr. Fumikazu Okajima (Gunma University, Maebashi, Japan). RH7777 cells stably expressing LPA1 or LPA3 receptors were generated in-house and had been characterized earlier. Wild type and LPA receptor (LPAR) stably transfected RH7777 cells were grown in DMEM supplemented with 10% FBS and 2 mM L-glutamine in the presence of 250 μg/ml G418. Chinese hamster ovary (CHO) cells stably expressing either vector or LPA4 receptor were a kind gift from Dr. Takao Shimizu (Tokyo University; Tokyo, Japan). Cells were cultured in Ham's F12 medium containing 10% FBS, 2 mM L-glutamine, and 350 μg/ml G418. Rat neuroblastoma cells (B103) were transduced with the lentivirus harboring wild type of FLAG-LPA5 and selected with puromycin to establish the stable cell lines. The stable cells were maintained in DMEM supplemented with 10% FBS and 0.4 μg/ml puromycin. GPR87- and P2Y10-expressing CHO cells and vector-transfected control cells were a gift from Dr. Norihisha Fujita (Ritsumeikan University; Shiga, Japan). The highly invasive MM1 rat hepatoma cells (gift from Dr. Michiko Mukai, Osaka University, Japan) were grown in suspension in DMEM supplemented with 10% (V/V) FBS, 2 mM L-glutamine, 100 U/mL penicillin, and 100 μg/mL streptomycin.

LPA2 DKO MEF cells [2] = experiment: Adriamycin-induced DNA fragmentation in LPA2 DKO MEF and EV DKO MEF cells; type: cell-based, mouse
Experimental: (§1) Mouse embryonic fibroblast (MEF) cells used in this study isolated from LPA1/2 double knock out (LPA2-DKO) mice {Lin, 2007 #132}. These MEF express LPA4/5/6 receptors endogenously at lower levels but completely lack LPA1/2/3 receptor subtypes. The human LPA2 receptor was reintroduced into these MEF cells by lentiviral transduction, which are designated LPA2 DKO MEF {Lin, 2007 #132}. Empty vector-transduced MEF cells, designates as EV DKO MEF, were used as a control. Cells were cultured in a DMEM supplemented with 10% v/v fetal bovine serum (FBS), 2 mM L-glutamine, 100 U/ml penicillin, and 100 μg/mL streptomycin. During serum starvation, the growth medium was replaced with DMEM containing 0.1% (w/v) BSA.
(§2) The cells were plated in 48 well plates (2×10^4 cells/well) and cultured overnight in full growth medium. Next morning the growth medium was replaced by serum-free starvation medium and cells were pretreated for 1 hour with LPA (1 or 3 μM), compound 5b or 7b (1, 3 or 10 μM). Apoptosis was elicited by 1.7 μM Adriamycin in vector and LPA2 transduced MEF cells. Caspase 3, 7, 8, 9 activity and DNA fragmentation were measured to assess apoptosis 5 h after Adriamycin exposure.
DNA fragmentation was quantified by using the Cell Death Detection ELISA assay kit (Roche Diagnostics, Penzberg, Germany). 20 μl cell lysate was incubated with the anti-histone-biotin anti-DNA-peroxidase-conjugated antibody in a 96-well streptavidin-coated plate with shaking at RT for 2 h. After washing the wells three-times with the incubation buffer, 100 μl/well 2,2′-azino-di(3-ethylbenzthiazolin-sulfonate) substrate was added and the absorbance was measured at 405 nm. Protein concentration was measured using BCA Protein Assay Kit (Thermo Fisher Scientific Inc., Rockford, Ill.). DNA fragmentation was expressed as absorbance units/mg protein. LPA was used as a positive control in all experiments.

LPA2 DKO MEF cells [3] = experiment: Adriamycin-induced caspase 3/7 activation in LPA2 DKO MEF and EV DKO MEF cells; type: cell-based, mouse; conditions: 1-3 μM, 1 h before Adriamycin
Experimental: as §1, §2
To measure caspase activation the cells were lysed in 50 μl Caspase-Glow® reagent (Caspase 3/7, 8, 9 Promega, Madison, Wis.). The cells were shaken with the caspase reagent for 30 min at room temperature (RT). After 30 min, the luminescence was measured using a BioTek (Winooski, Vt.) plate reader. The mean caspase activity in triplicates/experimental group±SD was calculated. LPA was used as a positive control in all experiments.

LPA2 [4] = molecular target: T1, LPA2; experiment: Fura-2AM Ca2+ mobilization in LPA2 DKO MEF cells; type: cell-based; design: expressed in transfected cells; host or cells: mouse embryonic fibroblasts from LPA1/2 double-knockout mice, lentiviral transduction; conditions: for EC50: DKO MEF; for Emax: MEF
Experimental: (§3) Fluorescence was read every 3.42 seconds for a total of 70 seconds at Ex/Emλ of 340/510 nm and 380/510 nm. Data (relative fluorescence) was then recorded as a mean fluorescence ratio value of the triplicates for each concentration. Graph Pad Prism version 5.0a was then used to fit a non-linear regression curve in a variable slope model (A) to determine the EC50, Emax, and curve fit (R^2)(B).
as §1, §3

Row | Compound | mortality by day 20 (C57BL/6 mice) | EC50 (LPA2 [1]) | protection from DNA fragmentation (LPA2 DKO MEF cells [2]; EV DKO MEF cells) | reduction of DNA fragmentation (LPA2 DKO MEF cells [2]; LPA2 DKO MEF, 10 μM, 60 min pretreatment, Adriamycin) | protection from Adriamycin induced DNA fragmentation (LPA2 DKO MEF cells [2]; LPA2 transduced cells, 3 μM) | caspase-3/7 activation (apoptosis) (LPA2 DKO MEF cells [3]; EV DKO MEF) | caspase-3/7 activation (apoptosis) (LPA2 DKO MEF cells [3]; LPA2 DKO MEF) | Emax (LPA2 [1]) | EC50 (LPA2 [4]) | Emax (LPA2 [4])
1 | O=C(O)c1ccccc1S(=O)(=O)NCCCN1C(=O)c2cccc3cccc(c23)C1=O [Compound 5a, 2-[3-(1,3-Dioxo-1H,3H-benzo[de]isoquinolin-2-yl)propylsulfamoyl]benzoic acid] | significantly reduced mortality | 2.2 µM | no protection | ~50% | selectively protected | not in EV DKO MEF cells | significantly reduced apoptosis |  |  | 
2 | O=C(O)c1ccccc1S(=O)(=O)NCCCCN1C(=O)c2cccc3cccc(c23)C1=O [Compound 5b, 2-[4-(1,3-Dioxo-1H,3H-benzo[de]isoquinolin-2-yl)butylsulfamoyl]benzoic acid] |  | 0.5 µM |  |  |  |  |  | 100% | 0.5 µM | 100%
3 | O=C(O)c1ccccc1S(=O)(=O)NCCCCCN1C(=O)c2cccc3cccc(c23)C1=O [Compound 5c] |  | 1.2 µM |  |  |  |  |  | 100% |  | 
4 | O=C(O)c1ccc([N+](=O)[O-])cc1S(=O)(=O)NCCCCN1C(=O)c2cccc3cccc(c23)C1=O [Compound 7a, 2-(N-(4-(1,3-dioxo-1H-benzo[de]isoquinolin-2(3H)-yl)butyl)sulfamoyl)-4-nitrobenzoic acid] | significantly reduced mortality | > 10 µM |  |  |  |  |  |  | > 10 µM | 
5 | O=C(O)c1ccc(Br)cc1S(=O)(=O)NCCCCN1C(=O)c2cccc3cccc(c23)C1=O [Compound 7b, 4-bromo-2-(N-(4-(1,3-dioxo-1H-benzo[de]isoquinolin-2(3H)-yl)butyl)sulfamoyl) benzoic acid] | ineffective | 1 µM |  |  |  | not in EV DKO MEF cells | significantly reduced apoptosis | 100% | 0.4 µM | 100%
6 | COc1ccc(C(=O)O)c(S(=O)(=O)NCCCCN2C(=O)c3cccc4cccc(c34)C2=O)c1 [Compound 7c, 2-(N-(4-(1,3-dioxo-1H-benzo[de]isoquinolin-2(3H)-yl)butyl)sulfamoyl)-4-methoxybenzoic acid] |  | > 10 µM |  |  |  |  |  |  |  | 
7 | O=C(O)c1ccc2c(c1)S(=O)(=O)N(CCCCN1C(=O)c3cccc4cccc(c34)C1=O)C2=O [Compound 9, 2-(4-(1,3-dioxo-1H-benzo[de]isoquinolin-2(3H)-yl)butyl)-3-oxo-2,3-dihydrobenzo[d]isothiazole-6-carboxylic acid 1,1-dioxide] |  | 3.6 µM |  |  |  |  |  | 75% |  | 
